Assay results: patent US20090233893A1, “Methods of Dissolving Beta-Sheet Proteins and Uses Thereof” (priority 2006, published 2009)
Values joined by “and” are separate entries in the source; they are usually repeats but may differ in a detail not shown here. Identical values can stand only once. Marks after values point to notes of the source that are not given here.

Experiments:
human erythrocytes = settings: Funder et al., 1978; cited from earlier work
Aβ 40 wild type peptide = biological target: T1, Aβ 40 wild type peptide (Homo sapiens, UniProt P05067); assay: Dissolution of Aβ 40 wild type peptide by metallized chelator, FTIR amide bands; assay type: biochemical; settings: Aβ40 wt dissolved in 500 mM chelator/heavy water solution
T1 construct: The amide I band for the Aβ 40 wild type peptide; gift of Dr. Jorge Ghiso
Procedure: (§1) Each metal salt-chelator solution was prepared with a slight excess of metal salt. Chelator-dissolved proteins were then lyophilized twice to eliminate water and resuspended in 200 μl aliquots of heavy water for spectral analysis.
(§2) Fourier Transform Infrared (FTIR) Spectroscopy: Metal chelator-dissolved β-sheet samples were injected into a sample cell with calcium fluoride windows and 0.05 mm path length. The instrument (Nicolet Magna JR 560 Spectrometer, ThermoNicolet, Madison, Wis.) resolution was 4 cm^−1; 1000 scans were collected.
(§3) Spectral subtraction as well as curve fitting and second derivative analysis of the amide I bands was carried out with the software program, Grams/32 Spectral Notebase, version 4.02, level 1 (ThermoNicolet, Madison, Wis.). Curvefitting parameters were not restricted; the fraction of Lorentzian line shape was allowed to vary. The second derivative analysis was carried out using a Savitsky-Golay algorithm, using either a third or fourth degree polynomial fit.

[1] = biological target: T2, Aβ 40 E22Q mutant peptide (Homo sapiens, UniProt P05067, E693Q); assay: Dissolution of Aβ 40 E22Q mutant peptide by metallized chelator, FTIR amide bands; assay type: biochemical; settings: Aβ40 E22Q dissolved in 500 mM chelator/heavy water solution
T2 sequence (P05067 672-711 E693Q): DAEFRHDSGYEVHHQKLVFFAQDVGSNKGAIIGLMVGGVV
Procedure: as §1, §2, §3

Aβ 42 wild type peptide = biological target: T3, Aβ 42 wild type peptide (Homo sapiens, UniProt P05067); assay: Dissolution of Aβ 42 wild type peptide by metallized chelator, FTIR amide bands; assay type: biochemical; settings: Aβ42 wt dissolved in 500 mM chelator/heavy water solution
T3 construct: The amide I band for the Aβ 42 wild type peptide in the solid state; gift of Dr. Jorge Ghiso
Procedure: as §1, §2, §3

[2] = biological target: T4, Aβ 42 E22Q mutant peptide (Homo sapiens, UniProt P05067, E693Q); assay: Dissolution of Aβ 42 E22Q mutant peptide by metallized chelator, FTIR amide bands; assay type: biochemical; settings: Aβ42 E22Q dissolved in 500 mM chelator/heavy water solution
T4 sequence (P05067 672-713 E693Q): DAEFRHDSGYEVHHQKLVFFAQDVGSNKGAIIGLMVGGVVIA
Procedure: as §1, §2, §3

wool = wool tertiary structure is a bundle of α-helices; selectivity
Source text: Wool's tertiary structure is a bundle of α-helices. […] The polyproline II conformation of collagen places its dihedral angles in the immediate vicinity of those for the β-sheet structure on a Ramachandran plot. Thus, choice of cation confers selectivity.

B. mori fibroin = settings: for Dissolution of fibroin: basic 500 mM solution, 1:1 molar ratio
[3] = tested on: tau paired helical filaments; settings: basic 500 mM solution, 1:1 molar ratio
Aβ 40 E22Q = Aβ 40 E22Q (Homo sapiens, UniProt P05067, E693Q); assay type: biochemical; settings: Aβ 40 E22Q incubated at room temperature for 67 hours, pH 7.4
[4] = Environmental Protection Agency (1999); cited from earlier work

SMILES: O=C([O-])O.[Li+] [Lithium bicarbonate]
- Increase of lithium influx into human erythrocytes over lithium chloride (human erythrocytes): twelve-fold

SMILES: NCCN.[Br-].[Li+] [Li^+en, Li^+ ethylene diamine bromide]
- Amide I peak of metal chelator-dissolved peptide (Aβ 40 wild type peptide): 1629 cm⁻¹ and 1646 cm⁻¹ and 1673 cm⁻¹
- Amide II peak of metal chelator-dissolved peptide (Aβ 40 wild type peptide): 1562 cm⁻¹
- Amide I peak of metal chelator-dissolved peptide [1]: 1621‡ cm^−1 and 1673 cm^−1
- Amide II peak of metal chelator-dissolved peptide [1]: 1531 cm⁻¹
- Amide I peak of metal chelator-dissolved peptide (Aβ 42 wild type peptide): 1626‡ cm^−1 and 1673 cm^−1
- Amide II peak of metal chelator-dissolved peptide (Aβ 42 wild type peptide): 1562 cm⁻¹
- Amide I peak of metal chelator-dissolved peptide [2]: 1625‡ cm^−1 and 1673 cm^−1
- Amide II peak of metal chelator-dissolved peptide [2]: 1531 cm⁻¹
- Dissolution of wool (wool): not found to dissolve
- Dissolution of fibroin (B. mori fibroin): can be dissolved
- Dissolution of paired helical filaments [3]: can be dissolved

SMILES: NCCN.[Cu+2].[OH-].[OH-] [Cu^2+en, Cu^2+ ethylene diamine hydroxide]
- Amide I peak of metal chelator-dissolved peptide (Aβ 40 wild type peptide): 1673 cm⁻¹
- Amide II peak of metal chelator-dissolved peptide (Aβ 40 wild type peptide): 1594 cm⁻¹
- Amide I peak of metal chelator-dissolved peptide [1]: 1673 cm⁻¹
- Amide II peak of metal chelator-dissolved peptide [1]: 1590 cm⁻¹
- Amide I peak of metal chelator-dissolved peptide (Aβ 42 wild type peptide): 1673 cm⁻¹
- Amide II peak of metal chelator-dissolved peptide (Aβ 42 wild type peptide): 1534 cm⁻¹ and 1591 cm⁻¹
- Amide I peak of metal chelator-dissolved peptide [2]: 1673 cm⁻¹
- Amide II peak of metal chelator-dissolved peptide [2]: 1590 cm⁻¹
- Thioflavin T fluorescence yield less than that of the chelator-free aliquot (Aβ 40 E22Q): 27%
- Dissolution of wool (wool): not found to dissolve
- Dissolution of fibroin (B. mori fibroin): can be dissolved
- Speed of the dissolution process for the silk or fibroin fiber (B. mori fibroin; judged by eye, more rapid than in the Li^+ ethylene diamine bromide solution): instantaneous on contact
- Dissolution of paired helical filaments [3]: can be dissolved
- Toxicity, EPA determination [4]: safe for human consumption
